The target in series [1] is Epidermal growth factor receptor (Homo sapiens, UniProt P00533).
Series [2] has as its system A549. Kind of series: Antiproliferative activity against human A549 cells harboring KRAS-G12S mutant at 30 uM incubated for 96 hrs measured on day 5 by CellTiterGlo assay. As to conditions: a549, 96 h. Type of series: cell-based.
Series [3] has as its system NCI-H1975. Kind of series: cells. Type of series: functional, cell-based. As to conditions: Homo sapiens.
The target in series [4] is Epidermal growth factor receptor (Homo sapiens, UniProt P00533, L858R).
Series [5] concerns the target Epidermal growth factor receptor (Homo sapiens, UniProt P00533, L858R/T790M).
The test system of a further series is HCC827. The series is described as follows: cells. It counts as functional, cell-based. As to conditions: Homo sapiens.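 Note: antiproliferative effect on HCC827 cells carrying EGFR delE746_A750 mutation, 96 h exposure, viability read by CellTiter-Glo luminescence on day 5.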
The subject of series [6] is A-431. The series is described as follows: cells. Type of series: ADME, cell-based. As to conditions: Homo sapiens.
Description: Antiproliferative activity against human A431 cells expressing wild type EGFR incubated for 96 hrs measured on day 5 by CellTiterGlo assay
The subject of series [7] is A549. Kind of series: cells. Type of series: ADME, cell-based. As to conditions: Homo sapiens.
Description: Antiproliferative activity against human A549 cells harboring KRAS-G12S mutant incubated for 96 hrs measured on day 5 by CellTiterGlo assay
Series [8] has as its system A-431. Kind of series: Antiproliferative activity against human A431 cells expressing wild type EGFR at 30 uM incubated for 96 hrs measured on day 5 by CellTiterGlo assay. It counts as cell-based. The following applies: a-431, 96 h. (In general: Cellular ATP, detected with luciferase, serves as a proxy for viable cell number.)
Series [9] relates to NCI-H1975. Kind of series: Antiproliferative activity against human NCI-H1975 cells harboring EGFR-L858R/T790M double mutant at 30 uM incubated for 96 hrs measured on day 5 by CellTiterGlo assay. It counts as functional, cell-based.
Series [10] is described as follows: Kinetic solubility in Hepes buffer at 500 uM at pH 7.4 after 90 mins. Type of series: physicochemical. As to conditions: read-out: Kinetic_solubility.
Series [11] in a line: Permeability of the compound at 500 uM incubated for 20 hrs by PAMPA. It counts as physicochemical. (In general: PAMPA measures passive passage across an artificial lipid membrane.)
A short description of series [12]: Fraction unbound in mouse 100% plasma at 5 uM incubated for 6 hrs by LC-MS method. It counts as ADME, cell-free.
Series [13] in a line: in vitro. As to conditions: mouse, liver microsomes. In general terms: Microsomes from liver hold many membrane-bound enzymes, among them those of drug oxidation.
Series [14] in a line: Metabolic stability in human plasma at 5 uM incubated for 1 hr by LC-MS method. Type of series: ADME, cell-free. The following applies: read-out: Stability.
A short description of series [15]: in vitro. As to conditions: human, liver microsomes.
Series [16] can be described thus: Metabolic stability in mouse plasma at 5 uM incubated for 1 hr by LC-MS method. As to conditions: read-out: Stability. Type of series: ADME, cell-free.

Structures are written as SMILES. ≈ marks a conversion by molar mass, not a printed value. Calls of active or inactive are those of the source. No cut-off for these calls is given here. Bounds are passed on as bounds.

Sequence of Epidermal growth factor receptor (Homo sapiens, UniProt P00533) (P00533 whole entry): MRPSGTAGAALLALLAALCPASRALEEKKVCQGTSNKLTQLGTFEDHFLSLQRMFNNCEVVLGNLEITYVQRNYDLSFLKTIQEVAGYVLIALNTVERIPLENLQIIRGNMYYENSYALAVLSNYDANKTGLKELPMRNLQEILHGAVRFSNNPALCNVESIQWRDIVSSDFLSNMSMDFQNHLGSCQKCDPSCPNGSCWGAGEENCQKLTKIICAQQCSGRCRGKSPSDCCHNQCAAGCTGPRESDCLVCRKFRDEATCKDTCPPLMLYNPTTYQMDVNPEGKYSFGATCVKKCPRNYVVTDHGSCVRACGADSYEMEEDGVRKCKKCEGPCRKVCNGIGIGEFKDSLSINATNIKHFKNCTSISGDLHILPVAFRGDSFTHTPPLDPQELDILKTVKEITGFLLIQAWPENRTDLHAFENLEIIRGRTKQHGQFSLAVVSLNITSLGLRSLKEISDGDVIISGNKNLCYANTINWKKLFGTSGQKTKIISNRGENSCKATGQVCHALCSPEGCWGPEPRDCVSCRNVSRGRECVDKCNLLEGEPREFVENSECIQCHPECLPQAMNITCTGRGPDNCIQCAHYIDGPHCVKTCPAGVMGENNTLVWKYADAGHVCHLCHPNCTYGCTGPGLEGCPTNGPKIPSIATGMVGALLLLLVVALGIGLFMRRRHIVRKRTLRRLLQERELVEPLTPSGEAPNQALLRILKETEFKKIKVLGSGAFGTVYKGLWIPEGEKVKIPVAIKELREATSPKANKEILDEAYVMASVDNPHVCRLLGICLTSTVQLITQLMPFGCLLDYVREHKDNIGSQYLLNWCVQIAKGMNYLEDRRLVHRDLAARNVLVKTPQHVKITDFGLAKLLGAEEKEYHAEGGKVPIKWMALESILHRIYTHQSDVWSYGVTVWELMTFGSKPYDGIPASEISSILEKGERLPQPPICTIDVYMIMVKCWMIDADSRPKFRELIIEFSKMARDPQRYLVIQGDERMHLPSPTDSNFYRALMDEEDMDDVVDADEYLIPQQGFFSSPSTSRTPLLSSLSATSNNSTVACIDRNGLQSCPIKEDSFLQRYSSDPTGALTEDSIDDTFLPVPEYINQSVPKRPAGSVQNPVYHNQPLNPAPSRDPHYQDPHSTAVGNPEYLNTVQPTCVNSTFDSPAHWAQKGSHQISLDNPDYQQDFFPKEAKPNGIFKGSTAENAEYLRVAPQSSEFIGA
Sequence of Epidermal growth factor receptor (Homo sapiens, UniProt P00533, L858R/T790M) (P00533 25-1210 T790M/L858R limits assumed): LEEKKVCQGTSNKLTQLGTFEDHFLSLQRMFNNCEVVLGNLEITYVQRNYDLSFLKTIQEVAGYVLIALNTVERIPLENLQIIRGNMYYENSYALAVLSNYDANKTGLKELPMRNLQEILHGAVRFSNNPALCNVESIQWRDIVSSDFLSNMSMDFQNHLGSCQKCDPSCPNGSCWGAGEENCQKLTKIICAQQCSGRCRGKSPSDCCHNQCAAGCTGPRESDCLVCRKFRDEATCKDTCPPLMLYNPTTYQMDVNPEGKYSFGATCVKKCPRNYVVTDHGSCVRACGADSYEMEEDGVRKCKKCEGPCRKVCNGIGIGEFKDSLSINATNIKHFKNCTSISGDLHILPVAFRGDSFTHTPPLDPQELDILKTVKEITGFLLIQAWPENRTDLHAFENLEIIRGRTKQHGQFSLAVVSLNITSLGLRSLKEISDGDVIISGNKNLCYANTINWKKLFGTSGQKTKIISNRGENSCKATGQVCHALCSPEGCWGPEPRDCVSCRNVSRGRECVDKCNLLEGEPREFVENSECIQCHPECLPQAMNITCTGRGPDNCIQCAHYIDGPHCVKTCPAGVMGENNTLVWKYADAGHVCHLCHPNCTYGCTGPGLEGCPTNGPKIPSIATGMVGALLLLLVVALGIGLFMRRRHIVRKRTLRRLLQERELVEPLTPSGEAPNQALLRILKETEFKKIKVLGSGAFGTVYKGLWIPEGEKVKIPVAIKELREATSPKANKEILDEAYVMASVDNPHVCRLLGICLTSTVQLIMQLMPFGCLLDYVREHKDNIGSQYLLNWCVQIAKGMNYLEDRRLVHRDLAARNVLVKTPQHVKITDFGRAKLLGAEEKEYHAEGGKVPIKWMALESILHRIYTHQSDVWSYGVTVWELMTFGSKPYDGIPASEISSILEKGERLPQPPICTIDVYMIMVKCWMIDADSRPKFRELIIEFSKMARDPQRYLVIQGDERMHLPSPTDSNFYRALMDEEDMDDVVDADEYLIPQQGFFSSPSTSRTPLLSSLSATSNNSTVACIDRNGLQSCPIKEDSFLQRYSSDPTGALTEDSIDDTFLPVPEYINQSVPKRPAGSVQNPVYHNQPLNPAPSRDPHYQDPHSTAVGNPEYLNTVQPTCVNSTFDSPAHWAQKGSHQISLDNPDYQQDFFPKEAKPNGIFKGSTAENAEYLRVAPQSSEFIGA
Sequence of Epidermal growth factor receptor (Homo sapiens, UniProt P00533, L858R) (P00533 25-1210 L858R limits assumed): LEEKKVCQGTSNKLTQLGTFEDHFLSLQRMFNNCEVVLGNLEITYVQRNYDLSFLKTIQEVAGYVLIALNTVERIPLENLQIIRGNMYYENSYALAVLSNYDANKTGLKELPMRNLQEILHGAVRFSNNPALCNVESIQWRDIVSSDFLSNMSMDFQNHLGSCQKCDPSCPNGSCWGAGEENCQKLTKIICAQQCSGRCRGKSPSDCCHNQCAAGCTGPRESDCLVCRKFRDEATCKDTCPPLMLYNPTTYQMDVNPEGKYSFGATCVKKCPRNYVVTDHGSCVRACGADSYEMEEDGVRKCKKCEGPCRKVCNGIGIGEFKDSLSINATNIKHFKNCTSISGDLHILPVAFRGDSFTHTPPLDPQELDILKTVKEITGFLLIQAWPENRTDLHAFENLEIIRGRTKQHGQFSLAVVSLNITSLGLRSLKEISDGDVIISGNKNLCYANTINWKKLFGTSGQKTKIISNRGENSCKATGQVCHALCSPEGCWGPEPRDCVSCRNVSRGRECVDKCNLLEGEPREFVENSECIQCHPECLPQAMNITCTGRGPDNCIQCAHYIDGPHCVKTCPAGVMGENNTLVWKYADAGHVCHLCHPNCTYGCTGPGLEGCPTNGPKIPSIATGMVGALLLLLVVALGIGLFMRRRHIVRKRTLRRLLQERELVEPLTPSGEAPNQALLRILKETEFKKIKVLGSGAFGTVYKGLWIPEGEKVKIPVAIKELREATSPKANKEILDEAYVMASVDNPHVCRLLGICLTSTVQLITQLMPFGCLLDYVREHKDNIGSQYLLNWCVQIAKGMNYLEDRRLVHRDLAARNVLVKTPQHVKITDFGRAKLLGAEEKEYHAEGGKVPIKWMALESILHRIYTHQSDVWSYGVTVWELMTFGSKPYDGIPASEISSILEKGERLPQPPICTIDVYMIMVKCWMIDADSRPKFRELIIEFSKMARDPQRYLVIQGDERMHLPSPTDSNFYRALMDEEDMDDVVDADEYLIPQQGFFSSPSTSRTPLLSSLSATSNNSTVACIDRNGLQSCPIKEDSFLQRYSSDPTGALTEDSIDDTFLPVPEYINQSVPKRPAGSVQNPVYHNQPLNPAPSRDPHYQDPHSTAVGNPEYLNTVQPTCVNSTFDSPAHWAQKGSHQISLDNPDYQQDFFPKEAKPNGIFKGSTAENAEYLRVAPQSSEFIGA
Description for HCC827: Antiproliferative activity against human HCC827 cells harboring EGFR-delE746_A750 mutant incubated for 96 hrs measured on day 5 by CellTiterGlo assay

As a reminder, the IC50 is the concentration that inhibits the measured activity by half. High values mean weaker potency, low ones greater potency. What is called EC50 is the concentration giving half of the maximal effect. A higher EC50 goes with lower potency in that assay. Consider `CN(C)C/C=C/C(=O)N1CCC[C@@H](n2nc(-c3ccccc3)c3c(N)ncnc32)C1`, for which the IC50 in series [1] was determined as 3000 nM; in [4], 220 nM; in series [5], 6600 nM. Moreover, the Activity result with A549 [2] is recorded as “Non-Toxic”. Besides, the EC50 in the series on NCI-H1975 [3] is 29900 nM; in the series on HCC827 it was 1190 nM; in the series with A-431 [6], 29800 nM.

On to `C=CC(=O)N1CCC[C@@H](n2nc(-c3ccc(F)cc3)c3c(N)ncnc32)C1`, for which the values for the IC50 in series [1], in [4] and in [5] were 130 nM, 30 nM and 280 nM, respectively.

As for `C=CC(=O)N1CCC[C@@H](n2nc(-c3ccc(O)cc3)c3c(N)ncnc32)C1`, the half-maximal effective concentration (EC50) with NCI-H1975 [3] was determined as 1840 nM; in the series on A549 [7], 20000 nM; in the series on HCC827 it was 70 nM; in the series on A-431 [6] it was 4170 nM.

Turning to `CCC(=O)N1CCC[C@@H](n2nc(-c3ccc(C(F)(F)F)cc3)c3c(N)ncnc32)C1`, the IC50 is 6500 nM in series [1], 5900 nM in [4] and above 10000 nM in series [5]. For the same compound, the Activity entry in the series with A549 [2] and in the series with A-431 [8] was “Non-Toxic” throughout. A half-maximal effect in the series on HCC827 (EC50) was put at 23600 nM. Moreover, the result in the series on NCI-H1975 [9] was inactive.

As a reminder, the fraction unbound is the share of the substance not bound to proteins or other matrix. A high value points to weak binding. The microsomal CLint is the rate of metabolic loss divided by the concentration. High values mean rapid turnover, low ones slow turnover. For the compound `C=CC(=O)N1CCC[C@@H](n2nc(-c3cccc(C(F)(F)F)c3)c3c(N)ncnc32)C1`, in series [10], the solubility kinetic at 1.5 h, 500 µM came out at 427 µM (≈ 178 µg/mL). Moreover, in series [11], the permeability is reported as 76%. The EC50 in the series on NCI-H1975 [3] was 4160 nM; in the series on A549 [7], 22200 nM; in the series on HCC827, 650 nM; in the series with A-431 [6], 16000 nM. In addition, in series [12], the free fraction (fraction unbound) at 6 h, 5 µM came to 0.09. Also, the microsomal CLint at 50 min, 3 µM came to 2770 µL/min/mg in “in vitro [13]” and 578 µL/min/mg in the series “in vitro [15]”. Also, the IC50 in series [4] turned out to be 30 nM; in [5] it was 220 nM. The remaining at 1 h, 5 µM worked out at 96% in [14] and 99% in series [16].

In the case of `C=CC(=O)N1CCC[C@@H](n2nc(-c3cccc(F)c3)c3c(N)ncnc32)C1`, the IC50 in series [1] came to 130 nM; in series [4] it was 10 nM; in series [5] it was 230 nM. Further, the Activity result with A549 [2] is recorded as “Non-Toxic”. The EC50 is 3370 nM in the series on NCI-H1975 [3], 70 nM in the series on HCC827 and 11700 nM in the series with A-431 [6].

With `C=CC(=O)N1CCC[C@@H](n2ncc3c(N)ncnc32)C1`, the IC50 is 6900 nM in series [1], 2500 nM in series [4] and 1600 nM in series [5]. Moreover, the Activity entry in the series with A549 [2] and in the series on A-431 [8] was “Non-Toxic” each time. The same compound displayed an EC50 in the series on HCC827 of 9900 nM. In addition, the result in the series with NCI-H1975 [9] was inactive.

`C=CC(=O)N1CCC[C@@H](n2nc(-c3ccc(N(C)C)c4ccccc34)c3c(N)ncnc32)C1`: the IC50 in series [1] was 810 nM; in series [4] it was 270 nM; in series [5], 210 nM. The Activity result in the series on A549 [2] is “Non-Toxic”. Also, the EC50 with NCI-H1975 [3] is 2670 nM; in the series on HCC827 it was 2130 nM; in the series on A-431 [6], 24500 nM.

As to `C=CC(=O)N1CCC[C@@H](n2nc(-c3ccc(C(F)(F)F)cc3)c3c(N)ncnc32)C1`, the values for the IC50 in series [1], in series [4] and in series [5] were 60 nM, 60 nM and 270 nM, respectively. Moreover, in the series on A549 [2], the Activity entry is reported as “Non-Toxic”. The EC50 in the series on NCI-H1975 [3] stood at 1380 nM; in the series with HCC827 it was 160 nM; with A-431 [6], 8870 nM.

Consider `C#Cc1nn([C@@H]2CCCN(C(=O)C=C)C2)c2ncnc(N)c12`, for which the IC50 in series [1] stood at 1500 nM; in series [4] it was 960 nM; in series [5], 690 nM. Besides, the EC50 in the series with NCI-H1975 [3] was 16200 nM; in the series with A549 [7] it was 28300 nM; in the series on HCC827 it was 2050 nM; in the series with A-431 [6], 29600 nM.

On to `C=CC(=O)N1CCC[C@@H](n2nc(C3CC3)c3c(N)ncnc32)C1`, for which the figures for the IC50 in series [1], in series [4] and in series [5] were 700 nM, 110 nM and 220 nM, respectively. In addition, the Activity result with A549 [2] was “Non-Toxic”. Moreover, the EC50 with NCI-H1975 [3] was 5830 nM; in the series on HCC827, 310 nM; in the series with A-431 [6], 28100 nM.

As for `C=CC(=O)N1CCC[C@@H](n2nc(C#CCC3CCCC3)c3c(N)ncnc32)C1`, the concentration for half-maximal inhibition (IC50) in series [1] is 750 nM; in series [4], 120 nM; in series [5], 920 nM. Also, the half-maximal effective concentration (EC50) with NCI-H1975 [3] turned out to be 6930 nM; in the series with A549 [7], 19900 nM; with HCC827, 3150 nM; in the series on A-431 [6], 8770 nM.

For the compound `C=CC(=O)N1CCC[C@@H](n2nc(-c3cnc4[nH]ccc4c3)c3c(N)ncnc32)C1`, the solubility kinetic at 1.5 h, 500 µM in [10] was 457 µM (≈ 178 µg/mL). The permeability in [11] worked out at 27%. In addition, the figures for the IC50 in [1] and in series [5] were 10 nM and 3 nM, respectively. The EC50 was 280 nM in the series on NCI-H1975 [3], 3450 nM in the series on A549 [7], below 14 nM in the series with HCC827 and 1390 nM in the series on A-431 [6]. Further, the fraction unbound at 6 h, 5 µM in [12] came out at 0.37. Besides, the intrinsic clearance (microsomal CLint) at 50 min, 3 µM in “in vitro [13]” came out at 495 µL/min/mg; in “in vitro [15]” it was 108 µL/min/mg. The results for the remaining at 1 h, 5 µM in series [14] and in [16] were 98% and 96%, respectively.

As to `C=CC(=O)N1CCC[C@@H](n2nc(-c3ccc(F)c4ccccc34)c3c(N)ncnc32)C1`, the Activity result in the series with A549 [2] is listed as “Non-Toxic”. In addition, the figures for the EC50 in the series on NCI-H1975 [3], with HCC827 and in the series on A-431 [6] were 360 nM, 430 nM and 12800 nM, respectively.

As for `CN(C)C/C=C/C(=O)Nc1cc2c(Nc3ccc(F)c(Cl)c3)ncnc2cc1O[C@H]1CCOC1` [AFATINIB], the EC50 was 600 nM in the series with NCI-H1975 [3], 1490 nM in the series with A549 [7], below 14 nM in the series on HCC827 and 200 nM in the series on A-431 [6].

Turning to `C=CC(=O)N1CCC[C@@H](n2nc(C#CC3CCCC3)c3c(N)ncnc32)C1`, the IC50 was determined as 750 nM in series [1], 60 nM in series [4] and 1400 nM in [5]. Also, the EC50 with NCI-H1975 [3] is 8270 nM; in the series with A549 [7], 27100 nM; in the series with HCC827, 1150 nM; with A-431 [6], 10900 nM.

For the compound `CN(C)C/C=C/C(=O)N1CCC[C@@H](n2nc(-c3cccc(C(F)(F)F)c3)c3c(N)ncnc32)C1`, the IC50 in series [1] worked out at 7300 nM; in [4] it was 1000 nM; in series [5], 6100 nM. Further, the Activity entry with A549 [2] is “Non-Toxic”. Also, the EC50 in the series on NCI-H1975 [3] came to 20600 nM; in the series with HCC827 it was 6390 nM; in the series with A-431 [6], 13700 nM.

Consider `C=CC(=O)N1CCC[C@@H](n2nc(Cc3ccccc3)c3c(N)ncnc32)C1`, for which the values for the IC50 in [1], in series [4] and in [5] were 20 nM, 3 nM and 10 nM, respectively. Also, the Activity entry with A549 [2] is given as “Non-Toxic”. Also, the EC50 in the series with NCI-H1975 [3] turned out to be 690 nM; in the series on HCC827 it was 150 nM; with A-431 [6] it was 19900 nM.

Turning to `C=CC(=O)N1CCC[C@@H](n2nc(-c3ccccc3)c3c(N)ncnc32)C1`, in series [10], the solubility kinetic at 1.5 h, 500 µM turned out to be 461 µM (≈ 161 µg/mL). This compound returned a permeability in [11] of 59%. For the same compound, the IC50 in series [1] amounted to 140 nM; in [4], 10 nM; in series [5] it was 240 nM. Moreover, the EC50 was 3670 nM with NCI-H1975 [3], 21700 nM in the series on A549 [7], 70 nM in the series on HCC827 and 12700 nM in the series with A-431 [6]. Moreover, the fraction unbound at 6 h, 5 µM in series [12] came out at 0.33. Moreover, the microsomal CLint at 50 min, 3 µM in the series “in vitro [13]” worked out at 924 µL/min/mg; in the series “in vitro [15]”, 122 µL/min/mg. Further, the values for the remaining at 1 h, 5 µM in series [14] and in series [16] were 97% and 91%, respectively.

Take `C=CC(=O)Nc1cccc(Oc2nc(Nc3ccc(N4CCN(C)CC4)cc3OC)ncc2Cl)c1`: the EC50 with NCI-H1975 [3] turned out to be 90 nM; with A549 [7], 3990 nM; in the series on HCC827 it was 20 nM.

The values above are taken from ChEMBL document CHEMBL4038351, “Structure-Guided Development of Covalent and Mutant-Selective Pyrazolopyrimidines to Target T790M Drug Resistance in Epidermal Growth Factor Receptor” (J Med Chem, 2017).
